Source: PubChem BioAssay (NCI)
Where “and” joins values, the source holds several entries; their conditions need not be identical. Identical values can stand only once.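 Cultured in 96-well plates, cells were exposed to test compound for 48 hours across five concentrations. GI50 is the concentration that inhibits growth by half. The concentration for full growth arrest is given as TGI.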

Experiments:
Experiment in all cases: NCI-60 cell line screen, 48 h
SK-OV-3 ovarian = tested on: SK-OV-3 ovarian
KM12 colon = tested on: KM12 colon
MDA-MB-231 breast = tested on: MDA-MB-231 breast
TK-10 renal = tested on: TK-10 renal
SN12C renal = tested on: SN12C renal
HCC-2998 colon = tested on: HCC-2998 colon
SNB-75 CNS = tested on: SNB-75 CNS
BT-549 breast = tested on: BT-549 breast
UO-31 renal = tested on: UO-31 renal
SF-539 CNS = tested on: SF-539 CNS

Compound	GI50 (SK-OV-3 ovarian)	TGI (SK-OV-3 ovarian)	GI50 (KM12 colon)	TGI (KM12 colon)	GI50 (MDA-MB-231 breast)	TGI (MDA-MB-231 breast)	GI50 (TK-10 renal)	TGI (TK-10 renal)	GI50 (SN12C renal)	TGI (SN12C renal)	GI50 (HCC-2998 colon)	TGI (HCC-2998 colon)	GI50 (SNB-75 CNS)	TGI (SNB-75 CNS)	GI50 (BT-549 breast)	TGI (BT-549 breast)	GI50 (UO-31 renal)	TGI (UO-31 renal)	GI50 (SF-539 CNS)	TGI (SF-539 CNS)
O=C(Nc1ccc([N+](=O)[O-])cc1)c1cc2ccccc2cc1O	0.384 µM	15.7 µM	0.698 µM	2.68 µM	0.413 µM	1.89 µM	0.402 µM	6.82 µM	0.348 µM	5.92 µM	1.25 µM	4.8 µM	0.538 µM	4.07 µM	0.444 µM	2.43 µM	0.294 µM	1.15 µM	0.388 µM	4.94 µM
CN1CCN(c2ccc([N+](=O)[O-])c3no[n+]([O-])c23)CC1	0.87 µM	1.73 µM and 2.12 µM	0.144 µM	1.6 µM and 0.291 µM		3.46 µM and 3.65 µM	0.454 µM	2.33 µM and 1.49 µM	0.357 µM	1.29 µM and 1.37 µM	1.32 µM	2.73 µM	0.175 µM		0.841 µM	4.64 µM and 2.12 µM	0.189 µM	1.88 µM and 1.14 µM	0.246 µM	0.722 µM and 0.733 µM
CCOC(=O)c1cn2ncnc(Oc3ccc(NC(=O)NCCN(CC)CC)c(Cl)c3)c2c1C	20.7 µM	50.2 µM	10.8 µM	49.5 µM	2.1 µM	4.37 µM	2.91 µM	11.1 µM	3.34 µM	13.3 µM	2.01 µM	4.68 µM	3.14 µM	31.5 µM	4.96 µM	19.5 µM	1.55 µM	3.19 µM	1.76 µM	3.45 µM
Cc1cc(Cl)ccc1Nc1nc(C(F)(F)F)ccc1C(=O)N/N=C/c1ccc(N(C)C)cc1	2.19 µM	> 100 µM	3.4 µM	> 100 µM	1.37 µM	> 100 µM	1.03 µM	> 100 µM	3.99 µM	> 100 µM	1.43 µM	> 100 µM	1.83 µM	> 100 µM	0.624 µM	6.78 µM	2.97 µM	> 100 µM	5.87 µM	> 100 µM
O=C1/C(=C/c2ccc(C(F)(F)F)cc2)COc2ccc(O)cc21	16.2 µM	29.7 µM	1.75 µM	3.41 µM	2.36 µM	5.65 µM	3.7 µM	14.3 µM	1.73 µM	3.46 µM	1.57 µM	2.93 µM	13.9 µM	27.8 µM	4.29 µM	15.5 µM	1.26 µM	2.67 µM	1.68 µM	3.3 µM
C=C(C)C(=O)N1c2ccc(OC)cc2CC1C(=O)OCC (stereo not drawn)		> 100 µM		> 100 µM		> 100 µM		> 100 µM		> 100 µM		> 100 µM		> 100 µM		> 100 µM		> 100 µM		> 100 µM
O=C1C(Cl)=C(Nc2ccc3c(c2NC2=C(Cl)C(=O)c4ccccc4C2=O)C(=O)c2ccccc2C3=O)C(=O)c2ccccc21	6.52 µM	20.6 µM	2.98 µM	15 µM	1.67 µM	7.87 µM	7.26 µM	22.2 µM	1.73 µM	4.46 µM	3.26 µM	10.7 µM	4.35 µM	13.9 µM	1.36 µM	2.83 µM	1.75 µM	9.01 µM	2.83 µM	8.07 µM
O=C(Nn1c2c(sc1=NC1CC1)C(=O)c1ccccc1C2=O)c1cc2ccc1CCc1ccc(cc1)CC2	7.03 µM	21.4 µM	3.12 µM	13.7 µM	1.37 µM	9.82 µM	18.4 µM	34.7 µM	1.34 µM	2.61 µM	2.34 µM	6.67 µM	1.32 µM	6.04 µM	1.5 µM	2.91 µM	0.85 µM	2.77 µM	1.67 µM	3.06 µM
O=C1c2c(O)cccc2C(C(=O)CCCC(=O)C2c3cccc(O)c3C(=O)c3c(O)cccc32)c2cccc(O)c21		1.05 µM		0.868 µM		0.329 µM		1.67 µM		12.2 µM		3.4 µM		2.82 µM		4.74 µM		1.08 µM		0.675 µM
CC1(C)CC(O)CCCCCCOc2c(CN)cccc2NC(=O)c2nc(cnc2N)-c2ccc(cc2)S1(=O)=O (stereo not drawn)	2.22 µM	15.8 µM	0.843 µM	2.59 µM	1.85 µM	4.48 µM	1.52 µM	3.86 µM	0.761 µM	2.49 µM	2.01 µM	4.24 µM	0.223 µM	1.74 µM	1.25 µM	2.85 µM	0.648 µM	2.25 µM	0.0363 µM	1.73 µM
CCCCCCCCCCC(CN(CC)CC)C(O)c1ccccc1 (stereo not drawn)	2.78 µM	9.52 µM	1.83 µM	3.39 µM	1.72 µM	3.43 µM	1.65 µM	3.22 µM	2.11 µM	5.69 µM	1.81 µM	3.39 µM	1.33 µM	2.7 µM	2.02 µM	4.21 µM	1.56 µM	3.1 µM	1.72 µM	3.3 µM
c1cc(-c2cnn3nc(N4CCOCC4)ccc23)nc(NC2CC2)n1	14.6 µM	> 25 µM	8.13 µM	> 25 µM	10.2 µM	> 25 µM	7.7 µM	20.3 µM	8.83 µM	> 25 µM	8.64 µM	> 25 µM	5.99 µM	18.6 µM	8.15 µM	> 25 µM	7.12 µM	> 21.4 µM	6.11 µM	20.4 µM
COc1ccc(Cn2cc3c(c2-c2ccccc2)CCc2cncnc2-3)cc1	9.04 µM	31.2 µM	3.57 µM	13.5 µM	5.12 µM	18.3 µM	8.09 µM	26.6 µM	5.85 µM	20.9 µM	11.9 µM	25.5 µM	3.98 µM	13.5 µM	4.1 µM	14.7 µM	10.3 µM	24.2 µM	6 µM	18.7 µM
CCN1CCN(c2nc(C)cc(N(CCCNc3ccnc4cc(Cl)ccc34)Cc3ccco3)n2)CC1	7.82 µM	30.7 µM	5.07 µM	19.4 µM	3.18 µM	12.4 µM	2.13 µM	4.9 µM	5.55 µM	19.5 µM	2.05 µM	5.89 µM	1.7 µM	7.55 µM	2.03 µM	5.99 µM	1.83 µM	4.3 µM	1.75 µM	3.46 µM
